Laboratory results taken from ChEMBL document CHEMBL2203235, “Optimization of a natural product-based class of γ-secretase modulators” (J Med Chem, 2012).

What was measured:
Liver microsomes = assay: Metabolic stability in human liver microsomes at 1 uM after 60 mins by LC/MS/MS analysis; settings: 1 h
[1] = Modulation of gamma secretase in CHO-2B7 cells assessed as reduction in amyloid beta 40 level after 5 hrs by MSD ELISA; format: cell-based; settings: Cricetulus griseus, CHO-2B7, 5 h
[2] = Modulation of gamma secretase in CHO-2B7 cells assessed as reduction in amyloid beta 42 level after 5 hrs by MSD ELISA; format: cell-based; settings: Cricetulus griseus, CHO-2B7, 5 h

Row | SMILES | Stability (Liver microsomes) | IC50 [1] [nM] | IC50 [2] [nM]
1 | CCO[C@@H]([C@H]1C[C@@H](C)[C@H]2[C@H](O1)[C@H](O)[C@@]1(C)[C@@H]3CC[C@H]4C(C)(C)[C@@H](OC(=O)N[C@H]5CCNC5=O)CC[C@@]45C[C@@]35CC[C@]21C)C(C)(C)O | Stable | 2900 | 190
2 | CCO[C@@H]([C@H]1C[C@@H](C)[C@H]2[C@H](O1)[C@H](O)[C@@]1(C)[C@@H]3CC[C@H]4C(C)(C)[C@@H](O[C@H]5CN([C@H]6CCOC6)CCO5)CC[C@@]45C[C@@]35CC[C@]21C)C(C)(C)O | Stable | 6200 | 420
3 | CC(C)[C@@H](OC(=O)N1CCC1)[C@H]1C[C@@H](C)[C@H]2[C@H](O1)[C@H](O)[C@@]1(C)[C@@H]3CC[C@H]4C(C)(C)[C@@H](O[C@H]5CN(C(=O)CCC(=O)O)CCO5)CC[C@@]45C[C@@]35CC[C@]21C | Stable | 7200 | 280
4 | CC(C)[C@@H](OC(=O)N1CCC1)[C@H]1C[C@@H](C)[C@H]2[C@H](O1)[C@H](O)[C@@]1(C)[C@@H]3CC[C@H]4C(C)(C)[C@@H](OC(=O)N5CC(O)C5)CC[C@@]45C[C@@]35CC[C@]21C | Stable | 8000 | 350
5 | CC(C)[C@@H](OC(=O)N1CCC1)[C@H]1C[C@@H](C)[C@H]2[C@H](O1)[C@H](O)[C@@]1(C)[C@@H]3CC[C@H]4C(C)(C)[C@@H](OC(=O)N(C)CC(=O)O)CC[C@@]45C[C@@]35CC[C@]21C | Stable | 480 | 1790
6 | CCO[C@@H]([C@H]1C[C@@H](C)[C@H]2[C@H](O1)[C@H](O)[C@@]1(C)[C@@H]3CC[C@H]4C(C)(C)[C@@H](OC(=O)N5CC[C@H](C(=O)O)C5)CC[C@@]45C[C@@]35CC[C@]21C)C(C)(C)O | Stable | 17000 | 400
7 | CC(C)C(=O)N1CCO[C@@H](O[C@H]2CC[C@]34C[C@]35CC[C@]3(C)[C@@H]6[C@H](O[C@@H]([C@H](OC(=O)N7CCC7)C(C)C)C[C@H]6C)[C@H](O)[C@@]3(C)[C@@H]5CC[C@H]4C2(C)C)C1 | Stable | 11000 | 400
8 | CC(C)[C@@H](OC(=O)N1CCC1)[C@H]1C[C@@H](C)[C@H]2[C@H](O1)[C@H](O)[C@@]1(C)[C@@H]3CC[C@H]4C(C)(C)[C@@H](O[C@H]5CN(C(=O)CN6CCC6)CCO5)CC[C@@]45C[C@@]35CC[C@]21C | Stable | 7700 | 110
9 | CC(C)[C@@H](OC(=O)N1CCC1)[C@H]1C[C@@H](C)[C@H]2[C@H](O1)[C@H](O)[C@@]1(C)[C@@H]3CC[C@H]4C(C)(C)[C@@H](OC(=O)N5CC(NCC(F)(F)F)C5)CC[C@@]45C[C@@]35CC[C@]21C | Stable | 11000 | 750
10 | CC(C)[C@@H](OC(=O)N1CCC1)[C@H]1C[C@@H](C)[C@H]2[C@H](O1)[C@H](O)[C@@]1(C)[C@@H]3CC[C@H]4C(C)(C)[C@@H](OC(=O)N[C@@H]5CCCNC5=O)CC[C@@]45C[C@@]35CC[C@]21C | Stable | 6600 | 380
11 | CCO[C@@H]([C@H]1C[C@@H](C)[C@H]2[C@H](O1)[C@H](O)[C@@]1(C)[C@@H]3CC[C@H]4C(C)(C)[C@@H](O[C@H]5CN(CCN6CCOCC6)CCO5)CC[C@@]45C[C@@]35CC[C@]21C)C(C)(C)O | Stable | 1300 | 430
12 | CCO[C@@H]([C@H]1C[C@@H](C)[C@H]2[C@H](O1)[C@H](O)[C@@]1(C)[C@@H]3CC[C@H]4C(C)(C)[C@@H](OC(=O)N5CCC5)CC[C@@]45C[C@@]35CC[C@]21C)C(C)(C)O | Stable | 5000 | 140
13 | C[C@@H]1C[C@H]([C@H](O)C(C)(C)O)O[C@H]2[C@H]1[C@@]1(C)CC[C@@]34C[C@@]35CC[C@H](OC(=O)N3CCC3)C(C)(C)[C@@H]5CC[C@H]4[C@]1(C)[C@H]2O | – | – | 13000
14 | CCO[C@@H]([C@H]1C[C@@H](C)[C@H]2[C@H](O1)[C@H](O)[C@@]1(C)[C@@H]3CC[C@H]4C(C)(C)[C@@H](O[C@H]5CN(CCC(=O)O)CCO5)CC[C@@]45C[C@@]35CC[C@]21C)C(C)(C)O | Stable | 9600 | 310
15 | CC(=O)N1CCN(C(=O)O[C@H]2CC[C@]34C[C@]35CC[C@]3(C)[C@@H]6[C@H](O[C@@H]([C@H](OC(=O)N7CCC7)C(C)C)C[C@H]6C)[C@H](O)[C@@]3(C)[C@@H]5CC[C@H]4C2(C)C)CC1 | Stable | 5100 | 190
16 | CC(C)[C@@H](OC(=O)N1CCC1)[C@H]1C[C@@H](C)[C@H]2[C@H](O1)[C@H](O)[C@@]1(C)[C@@H]3CC[C@H]4C(C)(C)[C@@H](OC(=O)N[C@@H]5CCNC5=O)CC[C@@]45C[C@@]35CC[C@]21C | Stable | 5900 | 180

Row | SMILES | Stability (Liver microsomes) | IC50 [1] [nM] | IC50 [2] [nM]
17 | CCO[C@@H]([C@H]1C[C@@H](C)[C@H]2[C@H](O1)[C@H](O)[C@@]1(C)[C@@H]3CC[C@H]4C(C)(C)[C@@H](O[C@H]5CN(C(=O)C(C)C)CCO5)CC[C@@]45C[C@@]35CC[C@]21C)C(C)(C)O | Stable | 3500 | 170
18 | CC(C)[C@@H](OC(=O)N1CCC1)[C@H]1C[C@@H](C)[C@H]2[C@H](O1)[C@H](O)[C@@]1(C)[C@@H]3CC[C@H]4C(C)(C)[C@@H](OC(=O)NCCC(=O)O)CC[C@@]45C[C@@]35CC[C@]21C | Stable | 13000 | 610
19 | CCO[C@@H]([C@H]1C[C@@H](C)[C@H]2[C@H](O1)[C@H](O)[C@@]1(C)[C@@H]3CC[C@H]4C(C)(C)[C@@H](O[C@H]5CN(C6(C)COC6)CCO5)CC[C@@]45C[C@@]35CC[C@]21C)C(C)(C)O | Stable | 5800 | 400
20 | CC(C)[C@@H](OC(=O)N1CCC1)[C@H]1C[C@@H](C)[C@H]2[C@H](O1)[C@H](O)[C@@]1(C)[C@@H]3CC[C@H]4C(C)(C)[C@@H](OC(=O)NCCCC(=O)O)CC[C@@]45C[C@@]35CC[C@]21C | Stable | 7200 | 280
21 | CCO[C@@H]([C@H]1C[C@@H](C)[C@H]2[C@H](O1)[C@H](O)[C@@]1(C)[C@@H]3CC[C@H]4C(C)(C)[C@@H](O[C@H]5CN(C6CCOCC6)CCO5)CC[C@@]45C[C@@]35CC[C@]21C)C(C)(C)O | Stable | 5000 | 350
22 | COCCN1CCO[C@@H](O[C@H]2CC[C@]34C[C@]35CC[C@]3(C)[C@@H]6[C@H](O[C@@H]([C@H](OC(=O)N7CCC7)C(C)C)C[C@H]6C)[C@H](O)[C@@]3(C)[C@@H]5CC[C@H]4C2(C)C)C1 | Stable | 5200 | 530
23 | CCO[C@@H]([C@H]1C[C@@H](C)[C@H]2[C@H](O1)[C@H](O)[C@@]1(C)[C@@H]3CC[C@H]4C(C)(C)[C@@H](OC(=O)NC5COC5)CC[C@@]45C[C@@]35CC[C@]21C)C(C)(C)O | Stable | 5000 | 140
24 | CCO[C@@H]([C@H]1C[C@@H](C)[C@H]2[C@H](O1)[C@H](O)[C@@]1(C)[C@@H]3CC[C@H]4C(C)(C)[C@@H](O[C@H]5CN([C@@H]6CCOC6)CCO5)CC[C@@]45C[C@@]35CC[C@]21C)C(C)(C)O | Stable | 3000 | 180
25 | CCO[C@@H]([C@H]1C[C@@H](C)[C@H]2[C@H](O1)[C@H](O)[C@@]1(C)[C@@H]3CC[C@H]4C(C)(C)[C@@H](O[C@H]5CN(C(=O)CC6CNC6)CCO5)CC[C@@]45C[C@@]35CC[C@]21C)C(C)(C)O | Stable | 2500 | 120
26 | CC(C)[C@@H](OC(=O)N1CCC1)[C@H]1C[C@@H](C)[C@H]2[C@H](O1)[C@H](O)[C@@]1(C)[C@@H]3CC[C@H]4C(C)(C)[C@@H](OC(=O)N(C)C)CC[C@@]45C[C@@]35CC[C@]21C | Stable | 1400 | 1300
27 | CCO[C@@H]([C@H]1C[C@@H](C)[C@H]2[C@H](O1)[C@H](O)[C@@]1(C)[C@@H]3CC[C@H]4C(C)(C)[C@@H](O[C@H]5CN(CCO)CCO5)CC[C@@]45C[C@@]35CC[C@]21C)C(C)(C)O | Stable | 3700 | 260
28 | C[C@@H]1C[C@H]([C@H](O)C(C)(C)O)O[C@H]2[C@H]1[C@@]1(C)CC[C@@]34C[C@@]35CC[C@H](OC(=O)NC3CN6CCC3CC6)C(C)(C)[C@@H]5CC[C@H]4[C@]1(C)[C@H]2O (stereo partly drawn) | – | – | 580
29 | C[C@@H]1C[C@H]([C@H](O)C(C)(C)O)O[C@H]2[C@H]1[C@@]1(C)CC[C@@]34C[C@@]35CC[C@H](OC(=O)NCCN(C)C)C(C)(C)[C@@H]5CC[C@H]4[C@]1(C)[C@H]2O | – | – | 5700
30 | CC(=O)O[C@@H]([C@H]1C[C@@H](C)[C@H]2[C@H](O1)[C@H](O)[C@@]1(C)[C@@H]3CC[C@H]4C(C)(C)[C@@H](O)CC[C@@]45C[C@@]35CC[C@]21C)C(C)(C)O | – | – | 600
31 | C[C@@H]1C[C@H]([C@H](O)C(C)(C)O)O[C@H]2[C@H]1[C@@]1(C)CC[C@@]34C[C@@]35CC[C@H](OC(=O)N3CCOCC3)C(C)(C)[C@@H]5CC[C@H]4[C@]1(C)[C@H]2O | – | – | 9000
